Assay results published in publication PMC3984256, “A PCNA-Derived Cell Permeable Peptide Selectively Inhibits Neuroblastoma Cell Growth” (PLoS ONE, 2014).
Entries after “also recorded” stand apart in the source; their conditions may differ. Where a SMILES comes first, the peptide text is derived from it. [ ]: non-standard residue; d: D form.

Tests used:
[1] = tested on: EJ-mediated DSB repair, U2OS-derived EJ5-GFP cells; experiment: DSB repair reporter assay, EJ (EJ5-GFP); assay type: cell-based; settings: 30 µM, GFP-positive cells 3 d after I-SceI transfection, normalized to R9-srbPep, triplicates
Description: (§1) The plasmid pCBASce expresses the rare cutting I-SceI meganuclease. The U2OS-derived cell lines, DR-GFP, EJ5-GFP, and SA-GFP contain a stably transfected reporter gene for DSB repair mediated by HR, end joining (EJ), and single-strand annealing (SSA), respectively. These cell lines were cultured in DMEM medium with 10% FBS at 37°C in the presence of 5% CO2.
(§2) DR-GFP, EJ5-GFP, and SA-GFP cell lines were seeded at 2.5×10^4 cells/cm^2 in a 12-well plate. Once attached overnight, cells were transfected with 1.2 µg of the pCBASce I-SceI expression plasmid mixed with 3.6 µl of Lipofectamine 2000 (Invitrogen) in 200 µl of Optimem media (Invitrogen). After incubation for 3 h, the media containing transfection complexes was aspirated and replaced with fresh media containing 30 µM of the peptides. The HR, EJ, and SSA-mediated DSB repair, indicated by the restoration of a functional GFP gene in the respective cell lines, were quantified by measuring the relative abundance of GFP-positive cells by flow cytometry 3 d after transfection.

[2] = tested on: PCNA and POLD3 co-localization in SK-N-AS NB cells; experiment: PCNA/POLD3 co-localization, immunofluorescence; assay type: cell-based, human; settings: synchronized, 30 µM peptide 6 h after mimosine release
Description: (§3) Cells were seeded at 1×10^5/ml onto a chamber slide and were allowed to attach overnight. To analyze the interaction of PCNA with FEN1, LIGI, or Pol ä, we first synchronize cells at the G1/S boundary. The synchronization is achieved by starving cells in medium containing 0.25% FBS for 24 h. Cells were further cultured in the complete medium containing 400 µM of mimosine for 24 h. To release cells into S phase, cells were washed and incubated in mimosine-free medium containing 30 µM R9-caPep or R9-srbPep for 6 h. We pre-determined that the majority of cells were in the S-phase 6 h after mimosine was removed (data not shown). Cells were fixed in ice-cold methanol:acetone (50%:50%) for 10 min or in 4% paraformaldehyde for 20 min at room temperature. Cells were incubated with a goat polyclonal anti-PCNA antibody (Santa Cruz) and a mouse monoclonal anti-FEN1 antibody (Santa Cruz), a mouse anti-POLD3 antibody (Sigma, St. Louis, MO), or a mouse anti-LIGI antibody (Abcam, Cambridge, MA) for 1 h at room temperature. After being washed with PBS, cells were incubated with Alexa Fluor 488 conjugated anti-mouse IgG and Alexa Fluor 555 conjugated anti-goat IgG antibodies (Invitrogen, Grand Island, NY) for 1 h. Cells were mounted in Vectashield with DAPI (Vector Labs, Burlingame, CA) and visualized by a confocal microscope.

SK-N-BE(2)c cells = experiment: Clonogenic assay; assay type: cell-based, human; settings: 3 dishes averaged
Description: Three hundred fifty SK-N-BE(2)c cells were seeded onto a 60-mm tissue culture dish. Once attached overnight, cells were treated with or without cisplatin for 2 h. Cells were washed twice with growth medium and were cultured in fresh medium with or without R9-caPep for 3 weeks to allow colony formation. The medium was changed every 3 d. The colonies formed under each treatment conditions were counted after being stained with 0.5% crystal violet.

PCNA and p21 interaction = PCNA and p21 interaction in vitro; assay type: binding; settings: data not shown
[3] = tested on: non-malignant 7SM0032 cells; experiment: TUNEL apoptosis assay, 7SM0032; assay type: cell-based, human; settings: 7SM0032, same treatment (40 µM, 48 h), vs NB cells
Description: (§4) To measure cell growth, cells were seeded at 3×10^4/ml. After being allowed to attach overnight, cells were treated with various concentrations of the peptides for 72 h. Cell growth was measured by the CellTitor-Glo assay (Promega, Madison, WI) according to manufacturer's instruction. To measure apoptosis, cells were seeded at 1×10^5/ml onto a chamber slide. Once attached, cells were treated with the peptides for 48 h. Cells were fixed and analyzed by a TUNEL assay using the TMR red in situ cell death detection kit (Roche Diagnostics, Indianapolis, IN).

[4] = tested on: non-malignant 7SM0032 cells; experiment: Cell cycle analysis by PI flow cytometry, 7SM0032; assay type: cell-based, human; settings: 7SM0032, same treatment (40 µM, 48 h), vs NB cells
Description: Cells were seeded at 1×10^5/ml. Once attached, cells were treated with or without R9-caPep for 48 hours. Cells were fixed in 60% ethanol and stained with propidium iodide (PI). The cellular PI fluorescence intensity was determined by flow cytometry. The flow cytometry data were analyzed by the FlowJo program to model various cell populations.

[5] = tested on: SSA-mediated DSB repair, U2OS-derived SA-GFP cells; experiment: DSB repair reporter assay, SSA (SA-GFP); assay type: cell-based; settings: 30 µM, GFP-positive cells 3 d after I-SceI transfection, normalized to R9-srbPep, triplicates
Description: as §1, §2

[6] = tested on: PCNA and LIGI co-localization in SK-N-AS NB cells; experiment: PCNA/LIGI co-localization, immunofluorescence; assay type: cell-based, human; settings: synchronized, 30 µM peptide 6 h after mimosine release
Description: as §3

ãH2A.X foci = experiment: γH2A.X foci immunofluorescence after γ-irradiation; assay type: cell-based; settings: 30 µM peptide, 2 h pretreatment, 5 Gy; five fields; vs R9-srbPep
Description: To study DNA damage and repair, attached cells were pretreated with the peptides for 2 h and were then ã-irradiated (5 Gy). After irradiation, cells were cultured in the presence of the peptides for the indicated time. For analyzing ãH2A.X foci formation, cells were fixed in a solution of methanol and acetone (70%:30% v/v) for 15 min at −20°C. The slides were air-dried for storage and rehydrated in PBS prior to immunostaining. Cells were stained by a mouse monoclonal antibody specific to ãH2A.X (Millipore, Billerica, MA) followed by an Alexa Fluor 488 conjugated anti-mouse IgG antibody. For analyzing Rad51 foci formation, cells were fixed in PBS buffered 4% paraformaldehyde at room temperature for 15 min. After being washed twice by PBS, cells were permeabilized in PBS containing 0.5% triton for 15 min on ice. The fixed and permeabilized cells were stained with a rabbit polyclonal antibody raised against the human Rad51 (Santa Cruz) followed by an Alexa Fluor 488 conjugated anti-rabbit IgG antibody. Stained cells were visualized and imaged by a confocal microscope.

panel of NB cell lines = assay type: cell-based, human; settings: 72 h
Description: The human NB cell lines, SK-N-DZ, SK-N-BE(2)c, SK-N-AS, SK-N-SH, and SK-N-FI were obtained from the American Type Culture Collection (Rockville, MD). Cells were maintained in DMEM with 10% fetal bovine serum (FBS), 100 units/ml penicillin, and 100 µg/ml streptomycin in the presence of 5% CO2 at 37°C. Human PBMCs from a healthy donor were purchased from Sanguine BioSciences (Valencia, CA) and grown in RPMI1640 with10% FBS, 100 units/ml penicillin, 100 µg/ml streptomycin, and 10 ng/ml IL-2 in the presence of 5% CO2 at 37°C. Human embryonic progenitor cell line 7SM0032 was acquired from Millipore (Billerica, MA) and grown in the hEPM-1 Media Kit purchased from the same company.
as §4

CC[C@H](C)[C@H](NC(=O)CNC(=O)[C@H](CC(C)C)NC(=O)[C@H](CS)NC(=O)[C@H](CS)NC(=O)[C@@H](CCCNC(=N)N)NC(=O)[C@@H](CCCNC(=N)N)NC(=O)[C@@H](CCCNC(=N)N)NC(=O)[C@@H](CCCNC(=N)N)NC(=O)[C@@H](CCCNC(=N)N)NC(=O)[C@@H](CCCNC(=N)N)NC(=O)[C@@H](CCCNC(=N)N)NC(=O)[C@@H](CCCNC(=N)N)NC(=O)[C@H](N)CCCNC(=N)N)C(=O)N1CCC[C@H]1C(=O)N[C@@H](CCC(=O)O)C(=O)N[C@@H](CCC(N)=O)C(=O)N[C@@H](CCC(=O)O)C(=O)N[C@@H](Cc1ccc(O)cc1)C(=O)O [R9-caPep] (H-[dR][dR][dR][dR][dR][dR][dR][dR][dR]CCLGIPEQEY-OH; N-terminus and C-terminus assumed)
EJ-mediated DNA repair [1]: only small effects on EJ or SSA; also recorded: little effect on the EJ pathway
recruitment of POLD3 to PCNA [2]: did not seem to affect the recruitment of POLD3 to PCNA
reduction of number of colonies, sequential cisplatin then R9-caPep (SK-N-BE(2)c cells; 1 µM cisplatin 2 h, then 20 µM R9-caPep 3 weeks): about 80%
reduction of number of colonies, single agent (SK-N-BE(2)c cells; R9-caPep alone 20 µM 3 weeks, or cisplatin alone 1 µM 2 h): less than 30%
effect on PCNA and p21 interaction (PCNA and p21 interaction): did not block PCNA and p21 interaction in vitro
effect on cell survival in non-malignant cells [3]: significantly less effect on cell cycle progression and cell survival
effect on cell cycle progression in non-malignant cells [4]: significantly less effect on cell cycle progression and cell survival
SSA-mediated DNA repair [5]: only small effects on EJ or SSA; also recorded: slightly enhances DNA repair through SSA
LIGI co-localization with PCNA foci [6]: largely blocked
resolution of ãH2A.X foci (ãH2A.X foci): delayed the resolution of ãH2A.X foci induced by ã-irradiation
IC50 (panel of NB cell lines): 10 to 32 µM
sensitivity of MYCN-amplified vs. non-amplified NB cell lines (panel of NB cell lines; CellTiter-Glo): NB cell lines with MYCN amplification were uniformly more sensitive to R9-caPep than NB cell lines without MYCN amplification
